These results are taken from article PMC2788219, “The Acrylamide (S)-2 As a Positive and Negative Modulator of Kv7 Channels Expressed in Xenopus laevis Oocytes” (PLoS ONE, 2009).

Common to all, as to assay type: cell-based
In experiment [1] the target is T1, Kv7.2-W236L (Homo sapiens, UniProt O43526, W236L).
T1 construct: gene KCNQ2
Briefly: […] flux in transfected CHO cells; two-electrode voltage clamp in Xenopus oocytes (inhibition). For orientation: In two-electrode clamp one electrode senses voltage and the other passes current.

The target of experiment [2] is T2, Kv7.2 (Homo sapiens, UniProt O43526).
T2 construct: gene KCNQ2
The experiment can be described thus: […] flux in transfected CHO cells; two-electrode voltage clamp in Xenopus oocytes.

Experiment [3] deals with T3, Kv7.1 (Homo sapiens, UniProt P51787).
T3 construct: gene KCNQ1
T3 sequence (P51787 1-676): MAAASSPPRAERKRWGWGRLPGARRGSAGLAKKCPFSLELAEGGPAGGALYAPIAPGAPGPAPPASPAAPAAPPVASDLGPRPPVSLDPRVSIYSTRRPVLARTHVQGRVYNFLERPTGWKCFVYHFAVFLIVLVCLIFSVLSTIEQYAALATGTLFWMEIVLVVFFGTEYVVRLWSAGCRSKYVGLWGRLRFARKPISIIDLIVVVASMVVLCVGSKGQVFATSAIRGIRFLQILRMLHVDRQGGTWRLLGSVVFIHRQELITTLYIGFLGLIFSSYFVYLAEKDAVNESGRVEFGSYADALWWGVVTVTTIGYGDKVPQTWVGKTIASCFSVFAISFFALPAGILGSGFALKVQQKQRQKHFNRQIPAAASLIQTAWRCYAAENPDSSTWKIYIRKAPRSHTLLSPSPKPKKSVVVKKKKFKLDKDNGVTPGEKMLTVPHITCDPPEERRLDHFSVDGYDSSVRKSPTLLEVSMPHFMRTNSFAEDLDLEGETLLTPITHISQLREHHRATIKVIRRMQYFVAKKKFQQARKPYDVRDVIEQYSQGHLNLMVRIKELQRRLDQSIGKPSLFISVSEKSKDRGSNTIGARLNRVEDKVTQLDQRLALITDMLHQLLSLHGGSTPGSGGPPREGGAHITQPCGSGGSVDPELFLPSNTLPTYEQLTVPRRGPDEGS
Briefly: two-electrode voltage clamp in Xenopus oocytes, […]; weak inhibition. Particulars: read-out: % of control current at +40 mV (10 μM).

Experiment [4] addresses T4, Kv7.5 (Homo sapiens, UniProt Q9NR82).
T4 construct: gene KCNQ5
The experiment can be described thus: two-electrode voltage clamp in Xenopus oocytes, […]; current […] of control at +[…] mV. Particulars: read-out: % of control current at +40 mV (10 μM).

The target of experiment [5] is T5, Kv7.4 (Homo sapiens, UniProt P56696).
T5 construct: gene KCNQ4
T5 sequence (P56696 1-695): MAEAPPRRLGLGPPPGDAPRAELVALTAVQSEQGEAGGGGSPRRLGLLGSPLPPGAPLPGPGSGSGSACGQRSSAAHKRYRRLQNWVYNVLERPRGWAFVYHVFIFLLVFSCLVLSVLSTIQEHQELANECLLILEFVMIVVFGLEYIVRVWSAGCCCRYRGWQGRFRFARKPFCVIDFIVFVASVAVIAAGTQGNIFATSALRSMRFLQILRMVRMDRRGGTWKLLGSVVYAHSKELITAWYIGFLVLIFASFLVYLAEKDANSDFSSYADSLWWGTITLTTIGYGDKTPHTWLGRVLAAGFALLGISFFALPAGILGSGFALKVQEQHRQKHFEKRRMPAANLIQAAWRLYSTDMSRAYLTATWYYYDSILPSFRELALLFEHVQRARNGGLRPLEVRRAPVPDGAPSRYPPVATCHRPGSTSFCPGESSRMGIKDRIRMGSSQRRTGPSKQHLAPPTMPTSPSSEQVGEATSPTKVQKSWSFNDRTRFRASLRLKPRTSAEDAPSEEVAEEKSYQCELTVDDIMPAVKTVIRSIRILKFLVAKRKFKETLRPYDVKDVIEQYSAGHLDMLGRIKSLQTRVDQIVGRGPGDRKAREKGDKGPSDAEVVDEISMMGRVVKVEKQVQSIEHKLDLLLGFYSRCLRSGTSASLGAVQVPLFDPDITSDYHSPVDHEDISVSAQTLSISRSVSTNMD
The experiment can be described thus: […] flux in transfected CHO cells; two-electrode voltage clamp in Xenopus oocytes; W242L loss of sensitivity.

T4 sequence (Q9NR82 whole entry): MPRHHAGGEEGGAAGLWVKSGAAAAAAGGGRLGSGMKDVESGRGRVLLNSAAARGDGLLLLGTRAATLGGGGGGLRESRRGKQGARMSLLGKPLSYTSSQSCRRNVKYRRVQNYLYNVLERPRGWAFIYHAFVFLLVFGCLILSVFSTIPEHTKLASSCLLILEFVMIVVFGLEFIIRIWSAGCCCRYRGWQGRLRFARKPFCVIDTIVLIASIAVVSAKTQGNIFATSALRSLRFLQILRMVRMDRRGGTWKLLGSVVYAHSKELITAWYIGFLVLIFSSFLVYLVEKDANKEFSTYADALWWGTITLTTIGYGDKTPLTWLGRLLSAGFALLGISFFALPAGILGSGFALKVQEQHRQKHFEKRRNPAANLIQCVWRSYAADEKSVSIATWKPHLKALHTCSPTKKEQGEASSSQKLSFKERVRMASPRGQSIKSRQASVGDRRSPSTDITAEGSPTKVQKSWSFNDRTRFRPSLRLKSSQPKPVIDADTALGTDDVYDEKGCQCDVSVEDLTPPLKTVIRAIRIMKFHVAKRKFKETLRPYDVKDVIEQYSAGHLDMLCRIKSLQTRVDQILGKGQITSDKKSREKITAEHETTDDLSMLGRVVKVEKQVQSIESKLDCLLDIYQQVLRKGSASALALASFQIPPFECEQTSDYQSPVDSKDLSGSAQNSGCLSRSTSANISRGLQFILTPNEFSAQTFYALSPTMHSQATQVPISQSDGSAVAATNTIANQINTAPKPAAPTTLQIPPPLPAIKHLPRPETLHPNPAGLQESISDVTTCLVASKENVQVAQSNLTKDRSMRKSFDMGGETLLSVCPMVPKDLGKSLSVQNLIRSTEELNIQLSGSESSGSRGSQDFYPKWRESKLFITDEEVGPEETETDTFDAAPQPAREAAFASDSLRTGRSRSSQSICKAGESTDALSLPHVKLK
T2 sequence (O43526 whole entry): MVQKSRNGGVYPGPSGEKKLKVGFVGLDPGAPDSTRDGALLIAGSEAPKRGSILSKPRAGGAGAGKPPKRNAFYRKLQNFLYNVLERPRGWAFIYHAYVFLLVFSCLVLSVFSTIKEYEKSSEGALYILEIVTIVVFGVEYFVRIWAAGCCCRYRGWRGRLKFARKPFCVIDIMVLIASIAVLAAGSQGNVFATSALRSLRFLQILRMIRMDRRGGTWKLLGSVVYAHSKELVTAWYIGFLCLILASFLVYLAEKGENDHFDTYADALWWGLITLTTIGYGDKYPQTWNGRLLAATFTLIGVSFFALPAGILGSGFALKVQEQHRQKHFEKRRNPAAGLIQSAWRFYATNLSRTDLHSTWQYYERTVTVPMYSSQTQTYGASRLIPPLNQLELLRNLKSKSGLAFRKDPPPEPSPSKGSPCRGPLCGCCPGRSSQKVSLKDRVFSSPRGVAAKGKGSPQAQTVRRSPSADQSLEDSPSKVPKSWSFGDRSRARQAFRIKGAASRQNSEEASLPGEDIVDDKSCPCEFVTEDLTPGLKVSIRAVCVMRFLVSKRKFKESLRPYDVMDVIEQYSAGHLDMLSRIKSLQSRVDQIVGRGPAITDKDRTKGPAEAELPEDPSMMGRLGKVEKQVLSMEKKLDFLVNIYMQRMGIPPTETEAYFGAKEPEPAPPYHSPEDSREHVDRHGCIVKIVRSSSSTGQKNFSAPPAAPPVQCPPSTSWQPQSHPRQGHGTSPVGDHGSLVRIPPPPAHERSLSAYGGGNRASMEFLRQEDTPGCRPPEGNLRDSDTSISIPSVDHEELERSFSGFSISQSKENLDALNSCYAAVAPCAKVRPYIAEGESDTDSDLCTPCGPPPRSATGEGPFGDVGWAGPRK
T1 sequence (O43526 whole entry W236L): as the sequence (O43526 whole entry) above, with W236L counted along it

Turning to `C[C@H](NC(=O)/C=C/c1ccccc1F)c1ccc2c(c1)N(CC1CC1)CCO2` [(S)-2, (S)-N-[1-(4-Cyclopropylmethyl-3,4-dihydro-2H-benzo[1], [4]oxazin-6-yl)-ethyl]-3-(2-fluoro-phenyl)-acrylamide], 8100 nM corresponded to half-maximal inhibition in experiment [1] (IC50). Moreover, the results for the EC50 in experiment [2] and in experiment [5] were 170 nM and 220 nM, respectively. In addition, the remaining activity at 10 µM was 87.9 ± 2.2% in experiment [3] and 676 ± 83.5% in experiment [4].
